Tests used:
[1] = Cytotoxicity: destruction of MT-4 cells not infected with HIV, cultured the same way; assay type: cell-based; conditions: human, 5 days of incubation, concentration at which 50 % of the MT-4 cells were destroyed, read-out: 50% cytotoxic concentration to MT-4 cells
Description: (§1) In RPMI 1640 DM culture medium containing 20 mM of Hepes buffer solution, 10 % fetal bovine serum and 20 µg/ml of gentamycin, 3 x 10^4 MT-4 cells (human T cell clone which is destroyed by the infection of HIV) were infected with HIV in an amount of 100 times as large as expected to cause 50 % infection of the cells. Immediately thereafter, a predetermined amount of sample was added to the culture medium using 50 mg/ml sample solutions in dimethyl sulfoxide and the cells were cultured at 37°C.
(§2) After 5 days of incubation, the number of existing cells was counted to determine the concentration of the compound for preventing the death of 50 % of the MT-4 cells. Separately, MT-4 cells were cultured in the same way as above except that they were not infected with HIV to determine the concentration of the compound at which 50 % of the MT-4 cells were destroyed.

HIV = assay: Inhibitory activity for HIV infection: prevention of death of HIV-infected MT-4 cells, cell count after 5 days; assay type: cell-based; conditions: Human immunodeficiency virus 1, MT4, 120 h, 5 days of incubation at 37°C, concentration preventing the death of 50 % of the MT-4 cells
Description: Inhibitory activity for HIV infection
as §1, §2

Structure (SMILES) | CC50 at 120 h [1] | EC50 (HIV)
CC(=O)OCCOCn1c(Sc2ccccc2)c(C)c(=O)[nH]c1=S [Compound 1, 1-[(2-acetoxyethoxy)methyl]-6-phenylthio-2-thiothymine] | 196 µM | –
CCCOCn1c(Sc2ccccc2)c(C)c(=O)[nH]c1=O [Compound 38] | 147 µM | 5.6 µM
CCOCn1c(Cc2ccccc2)c(CC)c(=O)[nH]c1=O [Compound 427, 6-benzyl-1-ethoxymethyl-5-ethyluracil] | 245 µM | –
CCOCn1c(Sc2ccccc2)c(CC)c(=O)[nH]c1=S [Compound 313, 1-ethoxymethyl-5-ethyl-6-phenylthio-2-thiouracil] | 81 µM | –
CCOCn1c(Sc2cc(C)cc(C)c2)c(CC)c(=O)[nH]c1=S [Compound 314] | > 100 µM | 0.004 µM
CCCCn1c(-c2ccccc2)c(CC)c(=O)[nH]c1=S [Compound 220, 1-butyl-5-ethyl-6-phenylthiouracil] | 45 µM | 0.016 µM
CCOCn1c(-c2ccccc2)c(CC)c(=O)[nH]c1=S [Compound 215, 1-ethoxymethyl-5-ethyl-6-phenylthiouracil] | 133 µM | 0.016 µM

From EP0829476B1, “6-Substituted acyclopyrimidine nucleoside derivatives and antiviral agent containing the same as active ingredient thereof” (MITSUBISHI CHEMICAL CORPORATION, priority 1989, dated 1991)
